Values joined by “and” are separate entries in the source; they are usually repeats but may differ in a detail not shown here. Identical values can stand only once. Active and inactive are the calls of the source.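 Rule for the calls: active = compounds whose fitted half-maximal concentration for changing the GFP signal is at or below a set limit; inactive = the rest.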
Tested on: not listed separately
Experiment: TOR pathway RPL19A-GFP modulators, concentration series – cell-based, S. cerevisiae, flow cytometry, MLPCN hits, dose response (AID 2740);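 for GFP fluorescence, lower = active: background is signal of the same compound in parental non-GFP s288c yeast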
Details: S. cerevisiae RPL19A-GFP strain, flow cytometry fluorescence, 3 h; at 33 µM (top of the series)

| SMILES | GFP fluorescence, lower = active (kMESF (background-subtracted)) |
| --- | --- |
| O=C1ON=C(c2ccccc2)/C1=C/c1ccc(-c2ccccc2[N+](=O)[O-])o1 | 25.3 (inactive) |
| Cc1ccc(/C=c2\sc3nc(-c4cccs4)nn3c2=O)o1 | 44.7 (inactive) |
| O=C1Nc2ccccc2/C1=C\C(=O)c1ccccc1 | 34.2 (inactive) |
| O=C(Nc1ccc(NC(=O)c2cc3ccccc3o2)cc1)c1ccco1 | 39.7 (inactive) |
| Cc1cc(O)c(C(=O)/C=C/c2ccc(Cl)cc2)c(=O)o1 | 33 (inactive) |
| Cc1ccsc1/C=N/Nc1ncc(Cl)cc1Cl | 49.1 (inactive) |
| N/C(=N\OC(=O)c1cccc(Br)c1)c1ccccc1 | 40.8 (inactive) |
| COc1ccc(OC)c(S(=O)(=O)ON2C(=O)c3ccccc3C2=O)c1 | 25.6 (inactive) |
| Cc1ccccc1N=Nc1ccc(O)c2ncccc12 | 36.9 (inactive) |
| O=[N+]([O-])c1c(Nc2ccccn2)cc(Cl)c2nonc12 | 68.3 (inactive) |
| COc1ccccc1[C@]1(C)ON(c2ccccc2C(F)(F)F)C1=O | 30.8 (inactive) |
| O=C1C=CC(=O)N1c1ccc(OC(F)F)cc1 | 14.7 (inactive) |
| N/C(=N\OC(=O)c1ccccc1Cl)c1ccc(Cl)cc1 | 38.2 (inactive) |
| CCOc1ccccc1/C=c1\sc2ncnn2c1=O | 30.1 (inactive) |
| Cn1c(=O)c(C(=O)NNC(=O)c2ccc(Br)cc2)c(O)c2ccccc21 | 22.3 (inactive) |
| CCOC(=O)Cn1cc(/C=C/[N+](=O)[O-])c2ccccc21 | 39.5 (inactive) |
| CC(C)C(=O)NC(c1cccs1)c1cc([N+](=O)[O-])c2cccnc2c1O (configuration not stated) | 31.9 (inactive) |
| [O-][n+]1cccc2c(Br)cc(Br)c(O)c21 | 42.9 (inactive) |
| CC(=O)N(\C=C/C=C/C=C1\Sc2ccccc2C1=O)c1ccccc1 | 56.1 (inactive) |
| CCc1sc(C(=O)Nc2nc(-c3ccccn3)cs2)cc1C | 21.1 (inactive) |
| Oc1ccc(N=Nc2ccccc2)o1 | 42.3 (inactive) |
| CC(C)CC(=O)NC(=S)Nc1nc(-c2ccccc2)cs1 | 38.4 (inactive) |
| Cc1cccc2c1NC(=O)/C2=C\C(=O)c1cccs1 | 34.4 (inactive) |
| CCCc1cc(NCc2ccccn2)n2nc(C)c(-c3ccccc3)c2n1 | 39.1 (inactive) |

| SMILES | GFP fluorescence, lower = active (kMESF (background-subtracted)) |
| --- | --- |
| C/C(=N/NC(=O)c1ccc(C(C)(C)C)cc1)c1ccccn1 | 45.9 (inactive) |
| CS(=O)(=O)c1sc(C#N)c2c1C(=O)CC(c1ccccc1)C2 (configuration not stated) | 38.5 (inactive) |
| O=C(Oc1c(Cl)cc(Cl)c2cccnc12)c1ccco1 | 34.9 (inactive) |
| COc1ccccc1N=Nc1ccc(O)c2ncccc12 | 32.6 (inactive) |
| COc1cc(SSc2cc(OC)cc([N+](=O)[O-])c2N)c(N)c([N+](=O)[O-])c1 | 32.6 (inactive) |
| COc1ccc(NC(=O)/C(C#N)=C/c2ncc([N+](=O)[O-])n2C)c(OC)c1 | 41.5 (inactive) |
| O=C(O)c1ccc2c(c1)C(=O)/C(=C/c1ccccc1)C2=O | 36.8 (inactive) |
| O=C1C(Cl)=C(N2CCN(Cc3ccccc3)CC2)C(=O)N1c1ccccc1 | 40.2 (inactive) |
| O=C(NNC(=S)NC(=O)c1ccco1)c1ccc(F)cc1 | 49.8 (inactive) |
| Cc1ccc(S(=O)(=O)N2CC(C(=O)O)=CC[C@H]2c2ccc(Cl)cc2)cc1 | 37.3 (inactive) |
| Cc1ccc(-c2nc(N)c3c(-c4ccc(C)cc4)nn(C(C)(C)C)c3n2)cc1 | 43.1 (inactive) |
| CCCCCn1c(=O)c(C(=O)Nc2nc3ccccc3[nH]2)c(O)c2ccccc21 | 43.6 (inactive) |
| Cc1cc(C)c(S(=O)(=O)N2CCC(C(=O)NCc3ccc(Cl)cc3Cl)CC2)c(C)c1 | 31.7 (inactive) |
| Cc1ccc2[nH]c(C)c(/C=C/c3cc[n+](C)cc3)c2c1 | 37.4 (inactive) |
| O=C(NC(=S)NNC(=O)[C@H]1C[C@@H]1c1ccccc1)c1cccc(F)c1 | 45.1 (inactive) |
| COc1ccccc1-c1nc2s/c(=C\c3cccs3)c(=O)n2n1 | 36.9 (inactive) |
| Cc1cc(/C=C2/SC(=S)N(c3cccc(Cl)c3)C2=O)c(C)n1-c1cccnc1 | 42.7 (inactive) |
| COc1cccc2c(=O)c(C(=O)NCc3cccs3)c[nH]c12 | 40.5 (inactive) |
| O=[N+]([O-])c1cc(F)c2cccnc2c1O | 25.6 (inactive) |
| O=C(OCn1ncc(Br)c(Br)c1=O)c1ccccc1Cl | 44.4 (inactive) |
| O=C(Nc1ccccc1)ON=C1CCCC1 | 42.1 (inactive) |
| Cc1cc(S(=O)(=O)ON2C(=O)c3ccccc3C2=O)ccc1F | 43.3 (inactive) |
| COc1ccc(N=Nc2ccc(O)c3ncccc23)cc1 | 37.9 (inactive) |
| CCCCCCCCCCCCCCCC[n+]1cccc2ccccc21 | 1.36 (inactive) |

| SMILES | GFP fluorescence, lower = active (kMESF (background-subtracted)) |
| --- | --- |
| O=C(O)C1Sc2[nH]c(=O)sc2C2c3cc(Br)ccc3OC(=O)C12 (configuration not stated) | 37.8 (inactive) |
| CN(C)c1ccc(/C=C/c2cc[n+](C)cc2)cc1 | 44.5 (inactive) |
| Cc1[nH]c(-c2ccccn2)nc(=S)c1Cl | 30.8 (inactive) |
| O=C(Nc1ccc(NC(=O)c2cc3ccccc3o2)cc1)c1ccc2c(c1)OCCO2 | 40.1 (inactive) |
| Cc1cccc(NC(c2ccc(C)s2)c2ccc3ccc(C)nc3c2O)n1 (configuration not stated) | 31.2 (inactive) |
| Cc1[nH][nH]c(=O)c1C(c1ccc(-c2ccc(Cl)c(Cl)c2)o1)c1c(C)[nH][nH]c1=O | 43.4 (inactive) |
| CCSc1nnc(NC(=O)c2ccccn2)s1 | 50 (inactive) |
| COc1ccc(/C=C/C(=O)c2cc(Br)ccc(=O)c2O)cc1 | -35.7 (inactive) |
| COc1ccc(CCNC2=C(Cl)C(=O)N(CCc3ccc(OC)c(OC)c3)C2=O)cc1OC | 42.6 (inactive) |
| O=C(COc1ccccc1)NNC(=S)NC(=O)c1ccccc1 | 44.4 (inactive) |
| CSC1=NS(=O)(=O)c2c(C)nn(C)c2S1 | 35.2 (inactive) |
| CN(C)C(=O)Oc1ccnc2cc(Cl)ccc12 | 38.2 (inactive) |
| COc1ccc([C@@]2(C(C)C)ON(c3ccccc3C(F)(F)F)C2=O)cc1 | 45.9 (inactive) |
| O=C(NCc1ccc2c(c1)OCO2)c1nc(S(=O)(=O)Cc2ccccc2)ncc1Cl | 43.5 (inactive) |
| CS(=O)(=O)c1nc(-c2ccccc2)cc(C(F)(F)F)n1 | 31.9 (inactive) |
| CC(=O)Oc1ccc(N2C(=O)C3C4C=CC(CO)(O4)C3C2=O)cc1 (configuration not stated) | 38.8 (inactive) |
| CCc1cc(C(=O)Nc2nc(-c3ccccn3)cs2)sc1C | 23.7 (inactive) |
| O=c1c2cc(Cl)ccc2nc(-c2ccc([N+](=O)[O-])cc2)n1O | 14 (inactive) |
| COc1cccc(/C=C2\C(=O)N(c3cccc(C)c3)C(=O)c3ccccc32)c1 | 42.4 (inactive) |
| COc1ccc(C(=O)/C=C2/C(=O)Nc3ccccc32)cc1 | 38 (inactive) |
| C=CCOc1ccccc1C(=O)/C=C1/C(=O)Nc2ccccc21 | 41.5 (inactive) |
| Cc1cc(C)c(C)c(S(=O)(=O)ON2C(=O)c3ccccc3C2=O)c1C | 49.1 (inactive) |
| O=C1ON=C(c2ccc(Cl)cc2)/C1=C/c1ccc(O)cc1 | 40.8 (inactive) |

Tested on: S. cerevisiae RPL19A-GFP strain, flow cytometry fluorescence, 3 h
Experiment: as above
Details: not given

| SMILES | EC50 |
| --- | --- |
| O=C(OCC(=O)N1CCN(C(=O)c2ccco2)CC1)c1cc(-c2ccccc2)nc2ccccc12 | 6.98 µM and 3.89 µM |
| O=C(Nc1ccc(Cl)cc1)ON=C1CCCC1 | 10.8 µM |
| O=[N+]([O-])c1cc(S(=O)(=O)C(F)(F)F)ccc1Sc1nc2ccccc2s1 | 14.4 µM |
| COc1cc(/C=C/[N+](=O)[O-])ccc1O | 32.1 µM |
| O=C(CSC1=NS(=O)(=O)c2ccccc21)Nc1ccccc1 | 5.5 µM |
| Cc1ccc(C(=O)O)cc1N=Cc1cc(Br)cc(Br)c1O | 11.8 µM |
| Cc1ccc2nc(Cl)c3nnnn3c2c1 | 5.33 µM |
| O=C(C#Cc1ccccc1)c1ccco1 | 25.6 µM |
| CC(C)(C)C(=O)NC(=S)NNC(=O)c1sc2ccccc2c1Cl | 12.3 µM |
| CCOc1ccc(N2C(=O)/C(=C\c3cccs3)C(=O)NC2=S)cc1 | 5.66 µM |
| CC(C)(C)n1nc(-c2ccc(F)cc2)c2c(N)ncnc21 | 0.98 µM |
| CCc1ccc2c(c1)/C(=C/C(=O)c1cccs1)C(=O)N2 | 4.42 µM |
| COc1ccc([N+](=O)[O-])c(S(=O)(=O)c2ccc(Cl)cc2)n1 | 13.1 µM |
| O=C1C=CC(=O)N1c1cccc(-c2ccccc2)c1 | 2.7 µM |
| N/C(Cc1ccc(Cl)cc1)=N\OC(=O)c1ccccc1 | 8.02 µM |
| COc1cccc2cc(-c3nc4ccccc4o3)c(=O)oc12 | 1.11 µM |
